Assay results taken from ChEMBL document CHEMBL1125767, “New 5H-pyridazino[4,5-b]indole derivatives. Synthesis and studies as inhibitors of blood platelet aggregation and inotropics” (J Med Chem, 1991).
Blank lines part the entries; values can stand above or below the molecule they belong to.

Key:
[1] = species: Cavia porcellus; experiment: (§1) Inhibition of ADP-induced platelet aggregation in guinea pig whole blood at 5*10e-4 M; assay type: functional
[2] = species: Cavia porcellus; experiment: (§2) Inhibition of arachidonic acid induced platelet aggregation in guinea pig whole blood at 5*10e-4 M; assay type: functional
[3] = species: Cavia porcellus; experiment: Inhibition of ADP-induced platelet aggregation in guinea pig whole blood at 10e-4 M; assay type: functional
[4] = species: Cavia porcellus; experiment: Inhibition of arachidonic acid induced platelet aggregation in guinea pig whole blood at 10e-4 M; assay type: functional
[5] = species: Cavia porcellus; experiment: Inhibition of arachidonic acid induced platelet aggregation in guinea pig whole blood at 10e-5 M; assay type: functional
[6] = species: Cavia porcellus; experiment: Inhibition of arachidonic acid induced platelet aggregation in guinea pig whole blood at 5*10e-5 M; assay type: functional
[7] = species: Homo sapiens; experiment: Inhibition of arachidonic acid induced platelet aggregation in human platelet rich plasma at 10e-5 M; assay type: functional
[8] = species: Homo sapiens; experiment: Inhibition of adrenaline induced platelet aggregation in human platelet rich plasma at 10e-5 M; assay type: functional
[9] = species: Homo sapiens; experiment: Inhibition of collagen induced platelet aggregation in human platelet rich plasma at 10e-5 M; assay type: functional
[10] = species: Homo sapiens; experiment: Inhibition of ADP-induced platelet aggregation in human platelet rich plasma at 10e-5 M; assay type: functional
[11] = In vitro inhibitory activity against prostaglandin E2 in platelet aggregation induced by arachidonic acid at 10e-4 M concentration.; assay type: functional
[12] = In vitro inhibitory activity against prostaglandin E2 in platelet aggregation induced by arachidonic acid at 5*10e-4 M concentration.; assay type: functional
[13] = system: PDE4 (Canis lupus familiaris); experiment: Inhibition of canine heart Phosphodiesterase 4 at 100 uM
[14] = system: PDE4 (Canis lupus familiaris); experiment: Inhibition of canine heart Phosphodiesterase 4 at 50 uM
[15] = molecular target: PDE4 (Canis lupus familiaris); experiment: Inhibition of canine heart phosphodiesterase 4
[16] = species: Homo sapiens; experiment: nhibition of ADP-induced platelet aggregation in human platelet rich plasma at 5*10e-5 M; assay type: functional
[17] = species: Homo sapiens; experiment: Inhibition of arachidonic acid induced platelet aggregation in human platelet rich plasma at 5*10e-5 M; assay type: functional
[18] = species: Homo sapiens; experiment: Inhibition of adrenaline induced platelet aggregation in human platelet rich plasma at 5*10e-5 M; assay type: functional
[19] = species: Homo sapiens; experiment: Inhibition of collagen induced platelet aggregation in human platelet rich plasma at 5*10e-5 M; assay type: functional
[20] = species: Cavia porcellus; experiment: Inhibition of ADP-induced platelet aggregation in guinea pig whole blood at 5*10e-5 M; assay type: functional
[21] = species: Homo sapiens; experiment: Inhibition of adrenaline induced platelet aggregation in human platelet rich plasma at 7.5*10e-5 M; assay type: functional
[22] = species: Homo sapiens; experiment: Inhibition of collagen induced platelet aggregation in human platelet rich plasma at 7.5*10e-5 M; assay type: functional
[23] = species: Homo sapiens; experiment: Inhibition of ADP-induced platelet aggregation in human platelet rich plasma at 5*10e-5 M; assay type: functional
[24] = species: Homo sapiens; experiment: Inhibition of ADP-induced platelet aggregation in human platelet rich plasma at 7.5*10e-5 M; assay type: functional
[25] = species: Homo sapiens; experiment: Inhibition of arachidinoc acid induced platelet in human platelet rich plasma at 5*10e-5 M; assay type: functional
[26] = species: Homo sapiens; experiment: Inhibition of arachidinoc acid induced platelet in human platelet rich plasma at 7.5*10e-5 M.; assay type: functional
[27] = species: Cavia porcellus; experiment: Inhibition of ADP-induced platelet aggregation in guinea pig whole blood at 5*10e-3 M; assay type: functional
[28] = species: Cavia porcellus; experiment: Inhibition of arachidonic acid induced platelet aggregation in guinea pig whole blood at 5*10e-3 M; assay type: functional
[29] = species: Homo sapiens; experiment: Inhibition of arachidinoc acid induced platelet in human platelet rich plasma at 10e-5 M; assay type: functional
[30] = as §1; assay type: functional, Cavia porcellus
[31] = as §2; assay type: functional, Cavia porcellus
[32] = molecular target: T1, Thromboxane-A synthase (Homo sapiens) (UniProt P24557); experiment: In vitro inhibitory activity against prostaglandin E2 in platelet aggregation induced by arachidonic acid at 5*10e-3 M concentration; (Change from basal value); assay type: functional
T1 sequence (whole entry): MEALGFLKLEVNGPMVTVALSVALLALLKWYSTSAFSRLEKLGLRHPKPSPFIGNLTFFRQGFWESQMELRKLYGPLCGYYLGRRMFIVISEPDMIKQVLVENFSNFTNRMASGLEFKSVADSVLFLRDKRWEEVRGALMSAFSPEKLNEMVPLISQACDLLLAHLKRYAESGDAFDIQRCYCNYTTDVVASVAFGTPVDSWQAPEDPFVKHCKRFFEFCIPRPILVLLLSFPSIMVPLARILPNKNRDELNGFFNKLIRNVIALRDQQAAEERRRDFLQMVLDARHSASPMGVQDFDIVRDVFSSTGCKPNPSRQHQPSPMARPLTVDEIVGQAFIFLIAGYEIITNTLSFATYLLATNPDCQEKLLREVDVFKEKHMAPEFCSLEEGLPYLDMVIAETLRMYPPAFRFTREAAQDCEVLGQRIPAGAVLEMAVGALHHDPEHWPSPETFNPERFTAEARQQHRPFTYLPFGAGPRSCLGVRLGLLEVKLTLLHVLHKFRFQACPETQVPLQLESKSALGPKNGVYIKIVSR

[33] = molecular target: T1, Thromboxane-A synthase (Homo sapiens); experiment: In vitro inhibitory activity against thromboxane B2 synthetase in platelet aggregation induced by arachidonic acid at 5*10e-3 M concentration; (Change from basal value); assay type: functional
[34] = species: Cavia porcellus; experiment: Inhibition of arachidonic acid induced platelet aggregation in guinea pig whole blood at 5*10e-4 M (not determined); assay type: functional
[35] = species: Cavia porcellus; experiment: Inhibition of arachidonic acid induced platelet aggregation in guinea pig whole blood at 10e-6 M; assay type: functional
[36] = species: Cavia porcellus; experiment: Inhibition of arachidonic acid induced platelet aggregation in guinea pig whole blood at 5*10e-6 M; assay type: functional
[37] = In vitro inhibitory activity against prostaglandin E2 in platelet aggregation induced by arachidonic acid at 5*10e-5 M concentration.; assay type: functional
[38] = molecular target: T1, Thromboxane-A synthase (Homo sapiens); experiment: In vitro inhibitory activity against prostaglandin E2 in platelet aggregation induced by arachidonic acid at 10e-4 M concentration; (Change from basal value); assay type: functional
[39] = molecular target: T1, Thromboxane-A synthase (Homo sapiens); experiment: In vitro inhibitory activity against prostaglandin E2 in platelet aggregation induced by arachidonic acid at 5*10e-4 M concentration; (Change from basal value); assay type: functional
[40] = molecular target: T1, Thromboxane-A synthase (Homo sapiens); experiment: In vitro inhibitory activity against thromboxane B2 synthetase in platelet aggregation induced by arachidonic acid at 10e-4 M concentration; (Change from basal value); assay type: functional
[41] = molecular target: T1, Thromboxane-A synthase (Homo sapiens); experiment: In vitro inhibitory activity against thromboxane B2 synthetase in platelet aggregation induced by arachidonic acid at 5*10e-4 M concentration; (Change from basal value); assay type: functional

Compound: Cc1cc(C)n(-c2[nH]nc(Cl)c3c4ccccc4nc2-3)n1
Inhibition [1]: 31%
Inhibition [2]: 46.17%

inhibition [13]: 38%
Compound: Cc1cc(C)n(-c2[nH]nc(N3CCOCC3)c3c4ccccc4nc2-3)n1
inhibition at 100 µM [3]: 0%
Inhibition [1]: 47.83%
inhibition at 100 µM [4]: 99.4%
inhibition at 10 µM [5]: 0%
Inhibition [2]: 100%
Inhibition [6]: 59.83%
inhibition at 10 µM [7]: 3.35%
inhibition at 10 µM [8]: 0%
inhibition at 10 µM [9]: 36.6%
inhibition at 10 µM [10]: 24.8%
inhibition at 100 µM [11]: -80%
Inhibition [12]: -78%

inhibition [14]: 2.52%
Compound: Cc1cc(C)n(-c2[nH]nc(N3CCN(c4ccc(F)cc4)CC3)c3c4ccccc4nc2-3)n1

inhibition [13]: 9.39%
Compound: Cc1cc(C)n(-c2[nH]nc(NN)c3c4ccccc4nc2-3)n1 [listing 1 of 2 here]

inhibition [13]: 55.9%
Compound: NNC(=O)c1n[nH]c2c3nc4ccccc4c-3c(NN)nn12 [listing 1 of 3 here]

inhibition [13]: 4.8%
Compound: COc1ccc(N2CCN(c3[nH]nc(-n4nc(C)cc4C)c4nc5ccccc5c3-4)CC2)cc1

IC50 [15]: 121 µM
Compound: NNC(=O)c1n[nH]c2c3nc4ccccc4c-3c(NN)nn12 [listing 2 of 3 here]

inhibition [13]: 37%
Compound: CCOC(=O)c1n[nH]c2c3nc4ccccc4c-3c(Cl)nn12
Inhibition [1]: 57.63%
Inhibition [2]: 13.4%

inhibition [13]: 33.4%
Compound: Cc1cc(C)n(-c2n[nH]c(N3CCN(C)CC3)c3c4ccccc4nc2-3)n1
Inhibition [1]: 89.25%
Inhibition [2]: 78.25%

IC50 [15]: 118 µM
inhibition [13]: 44.8%
Compound: CNNc1[nH]nc(-n2nc(C)cc2C)c2nc3ccccc3c1-2
inhibition at 100 µM [3]: 0%
Inhibition [1]: 33.8%
Inhibition [16]: 0%
inhibition at 100 µM [4]: 7.86%
Inhibition [2]: 100%
Inhibition [17]: 0%
Inhibition [18]: 0%
Inhibition [19]: 0%
Inhibition [12]: -72.8%

Compound: NNC(=O)c1n[nH]c2c3nc4ccccc4c-3c(NN)nn12 [listing 3 of 3 here]
inhibition at 100 µM [3]: 8.25%
inhibition at 100 µM [4]: 38.3%

IC50 [15]: 348 µM
Compound: Cc1cc(C)n(-c2[nH]nc(NN)c3c4ccccc4nc2-3)n1.Cl
inhibition at 100 µM [3]: 23%
Inhibition [1]: 90%
Inhibition [20]: 0%
inhibition at 100 µM [4]: 83%
Inhibition [2]: 97%
Inhibition [6]: 0%
Inhibition [21]: 22%
Inhibition [22]: 78.4%
Inhibition [23]: 22%
Inhibition [24]: 23%
Inhibition [25]: 4.8%
Inhibition [26]: 6.5%
Inhibition [18]: 0%
Inhibition [19]: 0%
Inhibition [12]: 11.8%

Compound: Nc1cc(-c2ccncc2)c[nH]c1=O [INAMRINONE]
Inhibition [1]: 49%
Inhibition [2]: 100%

Prostaglandin E2 level [32]: -100%
Thromboxane B2 level [33]: -100%
Compound: CC(=O)Oc1ccccc1C(=O)O [ASPIRIN]
Inhibition [27]: 15%
Inhibition [28]: 30%
inhibition at 10 µM [8]: 38.3%
inhibition at 10 µM [9]: 52%
inhibition at 10 µM [10]: 20%
inhibition at 10 µM [29]: 90%
Inhibition [30]: 100%
Inhibition [31]: 100%

Compound: Cc1cc(C)n(-c2[nH]nc(NN)c3c4ccccc4nc2-3)n1 [listing 2 of 2 here]
Inhibition [1]: 67.83%
Inhibition [34]: 92.14%
Inhibition [12]: 96%

inhibition [13]: 29.5%
Compound: Cc1cc(C)n(-c2n[nH]c(-n3nc(C)cc3C)c3c4ccccc4nc2-3)n1

inhibition [13]: 32.8%
Compound: Cc1cc(C)n(-c2[nH]nc(N3CCCCC3)c3c4ccccc4nc2-3)n1
inhibition at 100 µM [3]: 0%
Inhibition [1]: 64.83%
inhibition at 100 µM [4]: 99.4%
inhibition at 10 µM [5]: 67.5%
inhibition at 1 µM [35]: 0%
Inhibition [2]: 100%
Inhibition [6]: 99.5%
Inhibition [36]: 26.38%
inhibition at 10 µM [7]: 83.8%
inhibition at 10 µM [8]: 42.5%
inhibition at 10 µM [9]: 0%
inhibition at 10 µM [10]: 23.9%
inhibition at 100 µM [11]: -91%
Inhibition [12]: -80.4%
Inhibition [37]: -100%

inhibition [13]: 7.52%
Compound: COc1ccccc1N1CCN(c2n[nH]c(N3CCN(c4ccccc4OC)CC3)c3c4ccccc4nc2-3)CC1
inhibition at 100 µM [3]: 0%
Inhibition [1]: 64%
inhibition at 100 µM [4]: 26.6%
Inhibition [2]: 56.13%

inhibition [14]: 11.9%
Compound: COc1ccccc1N1CCN(c2[nH]nc(-n3nc(C)cc3C)c3nc4ccccc4c2-3)CC1

Compound: NNc1nncc2ccccc12 [HYDRALAZINE]
Inhibition [1]: 0%
Inhibition [2]: 20%

inhibition [14]: 17.6%
Compound: CCOc1ccccc1N1CCN(c2[nH]nc(-n3nc(C)cc3C)c3nc4ccccc4c2-3)CC1

Prostaglandin E2 level [38]: 518%
Prostaglandin E2 level [39]: 119%
Thromboxane B2 level [40]: -61%
Thromboxane B2 level [41]: -31%
Compound: c1ccc2c(c1)[nH]c1c(-c3ncc[nH]3)nnc(-c3ncc[nH]3)c12
inhibition at 100 µM [3]: 23.2%
Inhibition [1]: 24.25%
inhibition at 100 µM [4]: 100%
Inhibition [2]: 98.88%
